Measured values reported in ChEMBL document CHEMBL1148655, “Anti-angiogenic activity of basic-type, selective cyclooxygenase (COX)-1 inhibitors” (2006).
Active and inactive are the calls of the source. The rule behind the calls is not given here.

How the values were obtained:
[1] = tested on: HUVEC; assay: Cytotoxicity against HUVEC cell line; format: functional; details: Homo sapiens, read-out: LD50 (the source's name)
[2] = tested on: HUVEC; assay: Antiangiogenic activity against HUVEC cells by tube formation assay at 100 uM; format: functional, Homo sapiens; details: for inhibition at 100 µM: Homo sapiens, HUVEC
[3] = target: Prostaglandin G/H synthase 1 (Homo sapiens) (UniProt P23219); details: at 30 µM
Prostaglandin G/H synthase 1 (Homo sapiens), sequence (P23219 whole entry): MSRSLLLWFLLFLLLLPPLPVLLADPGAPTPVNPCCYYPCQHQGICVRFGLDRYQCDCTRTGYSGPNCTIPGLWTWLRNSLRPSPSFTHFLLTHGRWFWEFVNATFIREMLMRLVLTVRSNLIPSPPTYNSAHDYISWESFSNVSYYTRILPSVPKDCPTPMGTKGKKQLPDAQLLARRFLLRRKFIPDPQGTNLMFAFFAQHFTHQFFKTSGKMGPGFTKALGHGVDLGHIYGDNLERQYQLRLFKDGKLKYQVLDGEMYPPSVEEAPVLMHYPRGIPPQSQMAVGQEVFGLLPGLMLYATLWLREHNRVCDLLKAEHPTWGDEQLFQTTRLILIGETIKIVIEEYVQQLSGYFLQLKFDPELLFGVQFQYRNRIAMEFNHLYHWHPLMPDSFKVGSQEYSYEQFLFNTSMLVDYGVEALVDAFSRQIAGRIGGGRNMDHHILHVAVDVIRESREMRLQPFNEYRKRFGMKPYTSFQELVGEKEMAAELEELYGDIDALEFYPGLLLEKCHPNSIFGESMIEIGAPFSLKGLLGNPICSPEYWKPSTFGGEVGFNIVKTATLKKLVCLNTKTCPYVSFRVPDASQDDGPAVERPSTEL
Description: Inhibition of COX1 at 30 uM

[4] = target: T1, Prostaglandin G/H synthase 2 (Homo sapiens) (UniProt P35354); details: at 30 µM
T1 sequence (whole entry): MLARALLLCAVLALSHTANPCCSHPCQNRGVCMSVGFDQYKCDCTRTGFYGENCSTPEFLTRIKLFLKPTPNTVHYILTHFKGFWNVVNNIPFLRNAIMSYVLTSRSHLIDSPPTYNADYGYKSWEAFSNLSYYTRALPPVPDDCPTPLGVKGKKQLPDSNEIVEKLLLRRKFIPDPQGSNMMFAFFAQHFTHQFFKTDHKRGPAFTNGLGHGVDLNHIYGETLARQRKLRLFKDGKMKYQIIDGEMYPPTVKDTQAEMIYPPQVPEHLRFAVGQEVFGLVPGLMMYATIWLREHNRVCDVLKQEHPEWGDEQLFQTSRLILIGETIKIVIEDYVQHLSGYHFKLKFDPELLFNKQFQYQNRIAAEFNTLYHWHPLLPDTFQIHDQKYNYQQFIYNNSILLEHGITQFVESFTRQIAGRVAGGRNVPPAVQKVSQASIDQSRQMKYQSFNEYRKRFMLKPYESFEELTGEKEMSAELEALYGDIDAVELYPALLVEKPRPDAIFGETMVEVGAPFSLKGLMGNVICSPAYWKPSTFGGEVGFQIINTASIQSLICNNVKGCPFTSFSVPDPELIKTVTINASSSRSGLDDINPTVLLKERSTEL
Description: Inhibition of COX2 at 30 uM

| SMILES | CC50 [1] [µM] | further results |
| --- | --- | --- |
| Cc1cc(C)cc(C(=O)n2ccc3cc(N)ccc32)c1 | > 100 | inhibition at 100 µM [2]: 50% |
| CC(=O)Oc1ccccc1C(=O)O | – | inhibition [3]: 21.9%; inhibition [4]: 15.7% |
| CC(C)Cc1ccc(C(C)C(=O)O)cc1 (stereo not drawn) [IBUPROFEN] | – | inhibition at 100 µM [2]: 35% |
| O=C(c1cc(Cl)cc(Cl)c1)N1CCc2cc([N+](=O)[O-])ccc21 | > 100 | – |
| O=C(c1cc(C(F)(F)F)cc(C(F)(F)F)c1)N1CCc2cc([N+](=O)[O-])ccc21 | > 100 | – |
| CS(=O)(=O)c1ccc(-c2cc(Br)sc2-c2ccc(F)cc2)cc1 [DUP-697] | – | inhibition [3]: inactive; inhibition at 100 µM [2]: 25% |
| CC(C)(C)c1cc(C(=O)N2CCc3cc([N+](=O)[O-])ccc32)cc(C(C)(C)C)c1 | > 100 | – |
| Nc1ccc2c(ccn2C(=O)c2cc(C(F)(F)F)cc(C(F)(F)F)c2)c1 | > 100 | – |
| O=C(c1cc(C(F)(F)F)cc(C(F)(F)F)c1)n1ccc2cc([N+](=O)[O-])ccc21 | > 100 | – |
| Nc1ccc2c(ccn2C(=O)c2cc(Cl)cc(Cl)c2)c1 | > 100 | – |
| CC(C)(C)c1cc(C(=O)N2CCc3cc(N)ccc32)cc(C(C)(C)C)c1 | > 100 | – |
| O=C(c1cc(Cl)cc(Cl)c1)n1ccc2cc([N+](=O)[O-])ccc21 | > 100 | – |
| Cc1cc(C)cc(C(=O)n2ccc3cc([N+](=O)[O-])ccc32)c1 | > 100 | – |
| Cc1cc(C)cc(C(=O)N2CCc3cc(N)ccc32)c1 | > 100 | – |
| CC(C)(C)c1cc(C(=O)n2ccc3cc(N)ccc32)cc(C(C)(C)C)c1 | > 100 | – |
| Nc1ccc2c(c1)CCN2C(=O)c1cc(C(F)(F)F)cc(C(F)(F)F)c1 | > 100 | – |
| CC(C)(C)c1cc(C(=O)n2ccc3cc([N+](=O)[O-])ccc32)cc(C(C)(C)C)c1 | > 100 | – |
| Cc1cc(C)cc(N2CCc3cc(N)ccc32)c1 | – | Activity [2]: 75% |
| Cc1cc(C)cc(C(=O)N2CCc3cc([N+](=O)[O-])ccc32)c1 | > 100 | – |
| Nc1ccc2c(c1)CCN2C(=O)c1cc(Cl)cc(Cl)c1 | > 100 | – |
